According to the supplement of paper PMC8612539:
In brackets after ≈: the same amount, converted by molar mass.

Experiments:
[1] = test system: Enterococcus spp.; assay: minimum inhibitory concentration (MIC)
Method: (§1)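 Broth microdilution MIC (Sensititre BOPO7F bovine plate, CLSI methods) of 19 antimicrobials against field isolates of P. multocida, M. haemolytica, H. somni (deep nasopharyngeal swabs) and E. coli, Enterococcus spp. (rectal swabs) from weaned dairy heifers. Incubation 16-24 h at 35 C. MIC is the lowest concentration preventing visible growth. Values with <= or > lie at the tested range limits. Trimethoprim-sulfamethoxazole is given as the trimethoprim component of a 1:19 mixture.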

[2] = test system: Mannheimia haemolytica; assay: minimum inhibitory concentration (MIC)
Method: as §1

CC[C@H]1OC(=O)C[C@@H](O)[C@H](C)[C@@H](O[C@@H]2O[C@H](C)[C@@H](O[C@H]3C[C@@](C)(O)[C@@H](O)[C@H](C)O3)[C@H](N(C)C)[C@H]2O)[C@@H](CC=O)C[C@@H](C)C(=O)/C=C/C(C)=C/[C@@H]1CO[C@@H]1O[C@H](C)[C@@H](O)[C@@H](OC)[C@H]1OC [Tylosin]
minimum inhibitory concentration [µg/mL]
Conditions	[1]	[2]
isolate (source animal id): 2	2 (≈ 2.18 µM)	–
isolate (source animal id): 8	–	> 32
isolate (source animal id): 13	–	> 32
isolate (source animal id): 18	–	> 32
isolate (source animal id): 21	–	> 32
isolate (source animal id): 25	–	> 32
isolate (source animal id): 27	–	> 32
isolate (source animal id): 28	–	> 32
isolate (source animal id): 30	–	> 32
isolate (source animal id): 31	–	> 32
isolate (source animal id): 32	–	> 32
isolate (source animal id): 34	–	> 32
isolate (source animal id): 35	> 32	–
isolate (source animal id): 36	–	> 32
isolate (source animal id): 37	–	> 32
isolate (source animal id): 40	–	32 (≈ 34.9 µM)
isolate (source animal id): 41	–	> 32
isolate (source animal id): 42	2 (≈ 2.18 µM)	–
isolate (source animal id): 43	–	> 32
isolate (source animal id): 44	2 (≈ 2.18 µM)	–
isolate (source animal id): 46	–	> 32
isolate (source animal id): 49	–	> 32
isolate (source animal id): 50	–	> 32
isolate (source animal id): 51	–	> 32
isolate (source animal id): 52	–	> 32
isolate (source animal id): 53	–	> 32
isolate (source animal id): 55	–	32 (≈ 34.9 µM)
isolate (source animal id): 56	–	> 32
isolate (source animal id): 57	–	> 32
isolate (source animal id): 79	2 (≈ 2.18 µM)	–
isolate (source animal id): 88	2 (≈ 2.18 µM)	–
isolate (source animal id): 91	2 (≈ 2.18 µM)	–
isolate (source animal id): 92	2 (≈ 2.18 µM)	–
isolate (source animal id): 100	–	> 32
isolate (source animal id): 103	–	> 32
isolate (source animal id): 107	–	> 32
isolate (source animal id): 108	–	> 32
isolate (source animal id): 111	2 (≈ 2.18 µM)	–
isolate (source animal id): 112	–	> 32
isolate (source animal id): 113	–	> 32
isolate (source animal id): 121	–	> 32
isolate (source animal id): 122	> 32	> 32
isolate (source animal id): 123	2 (≈ 2.18 µM)	> 32
isolate (source animal id): 126	–	> 32
isolate (source animal id): 133	2 (≈ 2.18 µM)	> 32
isolate (source animal id): 135	–	> 32
isolate (source animal id): 138	–	> 32
isolate (source animal id): 141	–	> 32
isolate (source animal id): 142	–	> 32
isolate (source animal id): 145	–	> 32
isolate (source animal id): 149	–	> 32
isolate (source animal id): 151	–	> 32
isolate (source animal id): 152	–	> 32
isolate (source animal id): 154	–	> 32
isolate (source animal id): 158	> 32	–
isolate (source animal id): 159	–	> 32
isolate (source animal id): 162	–	> 32
isolate (source animal id): 168	2 (≈ 2.18 µM)	–
isolate (source animal id): 169	2 (≈ 2.18 µM)	–
isolate (source animal id): 170	–	> 32
isolate (source animal id): 171	2 (≈ 2.18 µM)	> 32
isolate (source animal id): 172	–	> 32
isolate (source animal id): 173	–	> 32
isolate (source animal id): 175	> 32	–
isolate (source animal id): 177	4 (≈ 4.37 µM)	–
isolate (source animal id): 179	–	32 (≈ 34.9 µM)
isolate (source animal id): 180	–	> 32
isolate (source animal id): 181	2 (≈ 2.18 µM)	–
isolate (source animal id): 182	2 (≈ 2.18 µM)	–
isolate (source animal id): 183	2 (≈ 2.18 µM)	> 32
isolate (source animal id): 186	–	> 32
isolate (source animal id): 187	2 (≈ 2.18 µM)	> 32
isolate (source animal id): 188	–	> 32
isolate (source animal id): 190	2 (≈ 2.18 µM)	> 32
isolate (source animal id): 191	–	> 32
isolate (source animal id): 192	–	> 32
isolate (source animal id): 194	2 (≈ 2.18 µM)	–
isolate (source animal id): 195	2 (≈ 2.18 µM)	–
isolate (source animal id): 197	2 (≈ 2.18 µM)	–
isolate (source animal id): 201	–	> 32
isolate (source animal id): 202	–	> 32
isolate (source animal id): 209	–	> 32
isolate (source animal id): 211	2 (≈ 2.18 µM)	> 32
isolate (source animal id): 214	2 (≈ 2.18 µM)	–
isolate (source animal id): 220	–	> 32
isolate (source animal id): 221	–	> 32
isolate (source animal id): 222	4 (≈ 4.37 µM)	–
isolate (source animal id): 223	2 (≈ 2.18 µM)	> 32
isolate (source animal id): 228	> 32	–
isolate (source animal id): 230	> 32	–
isolate (source animal id): 233	–	> 32
isolate (source animal id): 235	> 32	–
isolate (source animal id): 236	8 (≈ 8.73 µM)	–
isolate (source animal id): 237	–	> 32
isolate (source animal id): 239	2 (≈ 2.18 µM)	–
isolate (source animal id): 241	> 32	> 32
isolate (source animal id): 244	2 (≈ 2.18 µM)	–
isolate (source animal id): 246	2 (≈ 2.18 µM)	–
isolate (source animal id): 247	> 32	–
isolate (source animal id): 250	2 (≈ 2.18 µM)	–
isolate (source animal id): 252	> 32	> 32
isolate (source animal id): 253	–	> 32
isolate (source animal id): 259	–	> 32
isolate (source animal id): 260	–	> 32
isolate (source animal id): 262	–	> 32
isolate (source animal id): 268	> 32	–
isolate (source animal id): 282	2 (≈ 2.18 µM)	> 32
isolate (source animal id): 285	> 32	–
isolate (source animal id): 287	–	> 32
isolate (source animal id): 288	–	> 32
isolate (source animal id): 289	2 (≈ 2.18 µM)	–
isolate (source animal id): 290	4 (≈ 4.37 µM)	–
isolate (source animal id): 291	–	> 32
isolate (source animal id): 293	–	> 32
isolate (source animal id): 296	2 (≈ 2.18 µM)	–
isolate (source animal id): 298	≤ 0.5	> 32
isolate (source animal id): 299	–	> 32
isolate (source animal id): 300	–	32 (≈ 34.9 µM)
isolate (source animal id): 301	2 (≈ 2.18 µM)	–
isolate (source animal id): 302	–	> 32
isolate (source animal id): 304	–	> 32
isolate (source animal id): 306	–	> 32
isolate (source animal id): 308	–	> 32
isolate (source animal id): 309	–	> 32
isolate (source animal id): 310	> 32	–
isolate (source animal id): 313	–	> 32
isolate (source animal id): 318	–	> 32
isolate (source animal id): 320	2 (≈ 2.18 µM)	> 32
isolate (source animal id): 321	–	> 32
isolate (source animal id): 323	–	> 32
isolate (source animal id): 324	–	> 32
isolate (source animal id): 326	–	> 32
isolate (source animal id): 328	–	> 32
isolate (source animal id): 329	–	> 32
isolate (source animal id): 331	4 (≈ 4.37 µM)	–
isolate (source animal id): 333	2 (≈ 2.18 µM)	> 32
isolate (source animal id): 335	–	> 32
isolate (source animal id): 338	–	> 32
isolate (source animal id): 341	> 32	–
